Measurements published in ChEMBL document CHEMBL4811298, “Discovery of novel class of histone deacetylase inhibitors as potential anticancer agents” (Bioorg Med Chem, 2021).
Values after ≈ are worked out from the molar mass of the structure shown. Active and inactive are the calls of the source. The rule behind the calls is not given here.

Key:
[1] = system: MCF7; assay: Induction of cell cycle arrest in human MCF7 cells assessed downregulation of CDK4 gene expression at 3 uM incubated for 24 hrs by whole transcriptome analysis; assay type: functional, cell-based
[2] = system: MCF7; assay: Induction of apoptosis in human MCF7 cells assessed as increase in caspase 3/7 activity at 1 to 3 uM measured after 48 hrs by ELISA; assay type: functional, cell-based; details: dose 1-3 µM
[3] = system: MCF7; assay: Induction of apoptosis in human MCF7 cells assessed as reduction in Bcl2 gene expression at 3 uM incubated for 24 hrs by whole transcriptome analysis; assay type: functional, cell-based
[4] = organism: Homo sapiens; assay: (§1) Selectivity ratio of IC50 for inhibition of C-terminal His-tagged human recombinant full length HDAC3 (1 to 428 residues)/N-terminal GST-tagged human recombinant NCOR2 (395 to 489 residues) expressed in baculovirus-infected Sf9 cells to IC50 for inhibition of C-terminal FLAG/His-tagged human recombinant HDAC1 (1 to 482 residues) expressed in baculovirus-infected Sf9 cells
[5] = molecular target: Histone deacetylase 5 (Homo sapiens, UniProt Q9UQL6); assay: Inhibition of N-terminal GST-tagged human recombinant full length HDAC5 expressed in baculovirus-infected Sf9 cells assessed as reduction in 7-amino-4-methylcoumarin release measured every 5 mins by fluorescence based analysis
Sequence of Histone deacetylase 5 (Q9UQL6 whole entry, the tested form may be a part): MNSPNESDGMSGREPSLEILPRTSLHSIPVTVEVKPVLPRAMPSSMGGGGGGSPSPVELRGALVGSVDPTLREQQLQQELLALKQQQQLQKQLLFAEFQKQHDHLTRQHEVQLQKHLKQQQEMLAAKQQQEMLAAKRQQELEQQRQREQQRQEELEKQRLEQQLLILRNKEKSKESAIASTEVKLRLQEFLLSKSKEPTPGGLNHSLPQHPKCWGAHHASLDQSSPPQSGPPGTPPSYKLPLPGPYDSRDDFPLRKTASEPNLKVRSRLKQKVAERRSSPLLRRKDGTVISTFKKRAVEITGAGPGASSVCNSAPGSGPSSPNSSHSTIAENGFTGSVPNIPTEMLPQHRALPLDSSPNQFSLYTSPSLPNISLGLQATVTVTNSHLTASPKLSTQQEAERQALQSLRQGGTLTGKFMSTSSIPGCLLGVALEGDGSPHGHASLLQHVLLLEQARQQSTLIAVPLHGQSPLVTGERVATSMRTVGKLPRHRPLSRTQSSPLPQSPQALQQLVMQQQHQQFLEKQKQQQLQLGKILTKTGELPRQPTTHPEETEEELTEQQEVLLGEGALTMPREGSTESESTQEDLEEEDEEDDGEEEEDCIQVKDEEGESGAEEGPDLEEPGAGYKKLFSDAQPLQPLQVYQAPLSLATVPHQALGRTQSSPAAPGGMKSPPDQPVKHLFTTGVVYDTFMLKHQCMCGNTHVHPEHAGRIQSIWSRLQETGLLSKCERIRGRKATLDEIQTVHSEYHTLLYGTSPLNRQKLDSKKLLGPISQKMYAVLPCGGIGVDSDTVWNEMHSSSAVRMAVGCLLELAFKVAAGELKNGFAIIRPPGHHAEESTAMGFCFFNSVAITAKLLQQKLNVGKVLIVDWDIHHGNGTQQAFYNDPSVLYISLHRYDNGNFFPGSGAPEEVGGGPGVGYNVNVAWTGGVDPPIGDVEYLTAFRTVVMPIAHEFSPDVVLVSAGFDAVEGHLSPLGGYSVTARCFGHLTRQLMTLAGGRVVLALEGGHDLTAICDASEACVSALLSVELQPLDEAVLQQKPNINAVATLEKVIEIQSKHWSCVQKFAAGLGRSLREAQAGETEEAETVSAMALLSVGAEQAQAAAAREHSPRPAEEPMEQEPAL

[6] = organism: Homo sapiens; assay: (§2) Selectivity ratio of IC50 for inhibition of N-terminal GST-tagged/C-terminal His-tagged human recombinant HDAC4 (627 to 1084 residues) expressed in baculovirus-infected Sf9 cells to IC50 for inhibition of C-terminal 6XHis-tagged human recombinant full length HDAC2 (1 to 488 residues) expressed in baculovirus-infected Sf9 cells
[7] = organism: Homo sapiens; assay: as §2, with “FLAG/His-tagged” for “6XHis-tagged”, “HDAC1” for “full length HDAC2”, “482” for “488”
[8] = molecular target: Histone deacetylase (Homo sapiens) (UniProt Q13547+O15379+Q9UBN7+Q92769+Q9UQL6+Q8WUI4+Q9BY41+Q96DB2+P56524+Q9UKV0+Q969S8); assay: Inhibition of HDAC in human MCF7 cells assessed as increase in acetylated histone H4 mRNA level at 3 uM incubated for 24 hrs by whole transcriptome analysis; assay type: cell-based
[9] = Metabolic stability of the compound in human liver microsomes assessed as parent compound remaining at 1 uM measured after 60 mins in absence of NADPH by LC-MS/MS analysis; assay type: ADME, Microsome; details: read-out: Stabilty
[10] = system: MCF7; assay: Induction of apoptosis in human MCF7 cells assessed as downregulation of c-Myc gene expression at 1 uM measured after 24 hrs whole transcriptome analysis; assay type: functional, cell-based
[11] = system: MCF7; assay: Induction of cell cycle arrest in human MCF7 cells assessed downregulation of RB1 gene expression at 3 uM incubated for 24 hrs by whole transcriptome analysis; assay type: functional, cell-based
[12] = organism: Homo sapiens; assay: Selectivity ratio of IC50 for inhibition of C-terminal His-tagged human HDAC9 (604 to 1066 residues) expressed in baculovirus-infected Sf9 cells to IC50 for inhibition of C-terminal FLAG/His-tagged human recombinant HDAC1 (1 to 482 residues) expressed in baculovirus-infected Sf9 cells
[13] = Half life in human liver microsomes at 1 uM measured after 60 mins in presence of NADPH by LC-MS/MS analysis; assay type: ADME, Microsome
[14] = molecular target: Cytochrome P450 2C9 (Homo sapiens, UniProt P11712); assay: Inhibition of human CYP2C9-1 expressed in insect supersomes assessed as reduction in HFC formation using MFC as substrate measured after 30 mins in presence of NADPH by fluorescence based analysis; assay type: ADME
Sequence of Cytochrome P450 2C9 (P11712 whole entry): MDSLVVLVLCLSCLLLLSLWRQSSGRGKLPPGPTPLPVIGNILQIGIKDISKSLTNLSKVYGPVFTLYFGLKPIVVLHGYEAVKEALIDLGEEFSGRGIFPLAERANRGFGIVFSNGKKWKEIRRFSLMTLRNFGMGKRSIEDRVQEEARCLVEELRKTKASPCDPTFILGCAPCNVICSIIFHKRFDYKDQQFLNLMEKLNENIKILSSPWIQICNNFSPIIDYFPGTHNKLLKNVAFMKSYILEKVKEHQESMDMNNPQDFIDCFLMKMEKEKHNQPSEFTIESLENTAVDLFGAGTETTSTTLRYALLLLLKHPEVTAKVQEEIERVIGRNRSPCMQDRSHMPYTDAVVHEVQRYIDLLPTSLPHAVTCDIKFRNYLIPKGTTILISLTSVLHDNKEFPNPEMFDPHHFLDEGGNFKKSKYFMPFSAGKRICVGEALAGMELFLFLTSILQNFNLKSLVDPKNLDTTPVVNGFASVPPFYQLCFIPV

[15] = system: MCF7; assay: Induction of apoptosis in human MCF7 cells assessed as downregulation of c-Myc protein expression at 1 to 3 uM measured after 48 hrs western blot analysis; assay type: functional, cell-based; details: dose 1-3 µM
[16] = system: MCF7; assay: Antiproliferative activity against human MCF7 cells assessed as reduction in cell viability incubated for 48 hrs by SRB assay; assay type: functional, cell-based; details: MCF7, 48 h
[17] = Half life in CD-1 mouse liver microsomes at 1 uM measured after 60 mins in presence of NADPH by LC-MS/MS analysis; assay type: ADME, Microsome
[18] = Kinetic aqueous solubility of the compound in 2% DMSO/phosphate buffered saline at 200 uM incubated for 90 mins by UV absorbance based analysis; assay type: physicochemical; details: read-out: Kinetic_solubility
[19] = Downregulation of HDAC1 gene expression in human MCF7 cells at 3 uM incubated for 24 hrs by whole transcriptome analysis relative to control; assay type: functional
[20] = organism: Homo sapiens; assay: Selectivity ratio of IC50 for inhibition of C-terminal His-tagged human HDAC9 (604 to 1066 residues) expressed in baculovirus-infected Sf9 cells to IC50 for inhibition of C-terminal 6XHis-tagged human recombinant full length HDAC2 (1 to 488 residues) expressed in baculovirus-infected Sf9 cells
[21] = system: MCF7; assay: Downregulation of SIRT2 gene expression in human MCF7 cells at 3 uM incubated for 24 hrs by whole transcriptome analysis; assay type: functional, cell-based
[22] = molecular target: Cytochrome P450 2D6 (Homo sapiens, UniProt P10635); assay: Inhibition of human CYP2D6 expressed in insect supersomes assessed as reduction in AHMC formation using AMMC as substrate measured after 40 mins in presence of NADPH by fluorescence based analysis; assay type: ADME
Sequence of Cytochrome P450 2D6 (P10635 whole entry): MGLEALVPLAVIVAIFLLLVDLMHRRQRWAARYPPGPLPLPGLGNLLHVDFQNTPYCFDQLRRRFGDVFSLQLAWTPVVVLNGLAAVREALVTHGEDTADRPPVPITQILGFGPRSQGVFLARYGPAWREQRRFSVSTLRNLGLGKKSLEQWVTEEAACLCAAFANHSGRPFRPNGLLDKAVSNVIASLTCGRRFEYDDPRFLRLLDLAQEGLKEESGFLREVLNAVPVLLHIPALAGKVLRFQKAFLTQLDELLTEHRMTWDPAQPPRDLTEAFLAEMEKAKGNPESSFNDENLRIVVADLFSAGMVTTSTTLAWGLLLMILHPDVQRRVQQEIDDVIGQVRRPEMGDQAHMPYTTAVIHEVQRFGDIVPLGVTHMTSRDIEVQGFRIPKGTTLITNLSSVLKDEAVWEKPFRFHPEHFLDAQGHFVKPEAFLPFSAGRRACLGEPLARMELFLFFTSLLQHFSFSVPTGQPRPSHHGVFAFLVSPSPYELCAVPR

[23] = Downregulation of HDAC3 gene expression in human MCF7 cells at 3 uM incubated for 24 hrs by whole transcriptome analysis relative to control; assay type: functional
[24] = system: MCF7; assay: Induction of cell cycle arrest in human MCF7 cells assessed as accumulation at subG1 phase at 1 uM incubated for 24 to 72 hrs by PI staining based flow cytometric analysis; assay type: functional; details: time 24-72 hrs
[25] = molecular target: Cytochrome P450 3A4 (Homo sapiens, UniProt P08684); assay: Inhibition of human CYP3A4 expressed in insect supersomes assessed as reduction in […] formation using midazolam as substrate measured after 30 mins in presence of NADPH by LC-MS/MS analysis; assay type: ADME
Sequence of Cytochrome P450 3A4 (P08684 whole entry): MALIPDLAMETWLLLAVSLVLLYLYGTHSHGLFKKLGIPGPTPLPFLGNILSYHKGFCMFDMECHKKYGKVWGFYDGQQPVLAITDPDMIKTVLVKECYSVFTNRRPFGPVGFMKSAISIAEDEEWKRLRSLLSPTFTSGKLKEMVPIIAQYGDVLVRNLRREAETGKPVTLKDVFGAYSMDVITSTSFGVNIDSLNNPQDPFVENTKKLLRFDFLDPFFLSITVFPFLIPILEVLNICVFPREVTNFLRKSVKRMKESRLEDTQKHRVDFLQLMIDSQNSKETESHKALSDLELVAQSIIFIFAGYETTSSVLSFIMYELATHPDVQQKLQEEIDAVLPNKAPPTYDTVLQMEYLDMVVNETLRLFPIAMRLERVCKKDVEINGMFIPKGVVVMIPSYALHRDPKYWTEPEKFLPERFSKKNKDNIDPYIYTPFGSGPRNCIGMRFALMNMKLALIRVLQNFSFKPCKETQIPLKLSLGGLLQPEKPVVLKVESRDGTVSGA

[26] = system: MCF7; assay: Downregulation of NFkB2 gene expression in human MCF7 cells at 3 uM incubated for 24 hrs by whole transcriptome analysis; assay type: functional, cell-based
[27] = organism: Homo sapiens; assay: Selectivity ratio of IC50 for inhibition of N-terminal GST-tagged human HDAC7 (518 to end residues) expressed in baculovirus-infected Sf9 cells to IC50 for inhibition of C-terminal FLAG/His-tagged human recombinant HDAC1 (1 to 482 residues) expressed in baculovirus-infected Sf9 cells
[28] = system: MCF7; assay: Induction of cell cycle arrest in human MCF7 cells assessed downregulation of CDK1 gene expression at 3 uM incubated for 24 hrs by whole transcriptome analysis; assay type: functional, cell-based
[29] = organism: Homo sapiens; assay: Selectivity ratio of IC50 for inhibition of N-terminal GST-tagged human recombinant full length HDAC5 expressed in baculovirus-infected Sf9 cells to IC50 for inhibition of C-terminal FLAG/His-tagged human recombinant HDAC1 (1 to 482 residues) expressed in baculovirus-infected Sf9 cells
[30] = system: MCF7; assay: Induction of cell cycle arrest in human MCF7 cells assessed downregulation of CDK6 gene expression at 3 uM incubated for 24 hrs by whole transcriptome analysis; assay type: functional, cell-based
[31] = system: A549; assay: Antiproliferative activity against human A549 cells assessed as reduction in cell viability incubated for 48 hrs by SRB assay; assay type: functional, cell-based; details: A549, 48 h
[32] = organism: Homo sapiens; assay: as §1, with “6XHis-tagged” for “FLAG/His-tagged”, “full length HDAC2” for “HDAC1”, “488” for “482”

SMILES: N=C(NO)c1ccc2nc(-c3cccc(-c4cn5ccccc5n4)c3)[nH]c2c1
- Activity [1]: Active
- Activity [2]: Active
- Activity [3]: Active
- Ratio IC50 [4]: > 44
- IC50 [5]: > 10 µM
- Ratio IC50 [6]: > 44
- Ratio IC50 [7]: > 44
- inhibition [8]: Active
- remaining at 1 h, 1 µM [9]: 99%
- Activity [10]: Active
- Activity [11]: Active
- Ratio IC50 [12]: > 44
- half-life at 1 µM [13]: 7.1 min
- IC50 [14]: > 10 µM
- Activity [15]: Active
- IC50 [16]: 2000 nM
- half-life at 1 µM [17]: 17.6 min
- solubility kinetic at 1.5 h, 200 µM [18]: 36.1 µM (≈ 13.3 µg/mL)
- fold change (FC) [19]: 3.2
- Ratio IC50 [20]: > 44
- inhibition [21]: Active
- IC50 [22]: > 10 µM
- fold change (FC) [23]: 2.2
- Activity [24]: Active
- IC50 [25]: 233 nM
- inhibition [26]: Active
- Ratio IC50 [27]: > 44
- Activity [28]: Active
- Ratio IC50 [29]: > 44
- Activity [30]: Active
- IC50 [31]: 200 nM
- Ratio IC50 [32]: > 44
